Test results published in the NIST ThermoML archive (doi:10.1016/j.jct.2019.07.008).
± gives the expanded uncertainty stated by the source.

Conditions: Liquid, Ebulliometric method (Recirculating still)

| vapor or sublimation pressure (355.2 K) | vapor or sublimation pressure (372.8 K) | Compound |
| --- | --- | --- |
| 100 ± 2 kPa | – | CC(C)(C)O [2-methylpropan-2-ol] |
| – | 100 ± 2 kPa | O [water] |
